Test results as given in article PMC9353713, “Tumor-targeting cell-penetrating peptide, p28, for glioblastoma imaging and therapy” (Frontiers in Oncology, 2022).

What was measured:
LN-229 = assay: Cytotoxicity, MTT assay; assay type: cell-based, human; details: LN-229, 1 mM, 72 hr, N=3, P<0.001
Description: (§1) Cytotoxicity was evaluated by the MTT assay as described previously ([21], [22]). Cells seeded in 96-well plates were exposed to TMZ at various concentrations for 72 hr (N=3 in each concentration). Curves were fitted using GraphPad PRISM (version 5.0) as a function of a nonlinear one-phase decay (maximum iterations: 1,000, Cl: 95%).

U-118 = assay: Cytotoxicity, MTT assay; assay type: cell-based, human; details: U-118, 1 mM, 72 hr, N=3, P<0.001
Description: as §1

LN-229 xenograft = assay: Subcutaneous xenograft tumor growth; assay type: in vivo, athymic mice; details: LN-229 s.c. xenograft, day 20; TMZ 5 mg/kg Day1-5, p28 10 mg/kg 3 times weekly, i.p.; N=5/group; P<0.001
Description: (§2) All animal work was performed under a protocol approved by the University of Illinois at Chicago. Athymic mice at 4-5 weeks old were purchased from The Jackson Laboratory. For orthotopic xenografts, GBM cell lines (LN-229 and U-118) were injected into the cerebral cortex. Following anesthesia, cancer cell suspensions at 5x10^5 cells/3μl were stereotactically injected (2 mm lateral to the sagittal suture, 1 mm anterior to the coronal suture, 3 mm depth) using a Koft model 963 stereotactic apparatus with a 31-gauge Hamilton syringe. After injection, the injection site was covered with sterile bone wax. Tumor growth was monitored by MR imaging. For tumor growth study, GBM cell lines (LN-229 and U-118) at 1.0x10^6 cell/mouse were subcutaneously (s.c.) implanted into the right flank of athymic mice ([22]). When tumors reached 3 mm in diameter, animals were randomized into several groups; PBS (control), TMZ 5 mg/kg (25.7 μmol/kg) 5 injections on Day1-5, and p28 10 mg/kg (3.4 μmol/kg) 3 times weekly, i.p. Body weight was determined 3 times weekly. The tumor volume in each animal was assessed by calipers and calculated 3 times weekly.
(§3) Data processing and statistical analysis were performed using GraphPad Prism. ANOVA test was performed for tumor growth analysis, and P<0.05 was considered statistically significant.

U-118 xenograft = assay: Subcutaneous xenograft tumor growth; assay type: in vivo, athymic mice; details: U-118 s.c. xenograft, day 20; TMZ 5 mg/kg, p28 10 mg/kg i.p.; N=7/group
Description: as §2, §3

[1] = Body weight in xenograft study; assay type: in vivo, athymic mice; details: U-118 xenograft mice, over four weeks of i.p. treatment
Description: as §2

Cn1nnc2c(C(N)=O)ncn2c1=O [TMZ, temozolomide]
reduction (antiproliferative effect, MTT) (LN-229): 53.2%
reduction (antiproliferative effect, MTT) (U-118): 36.6%
reduction in tumor growth compared to the PBS control group (LN-229 xenograft): 42.4%
reduction of tumor growth (U-118 xenograft): 24.5%
body weight [1]: 29.0 ± 0.8 g
